Marks after values point to notes of the source that are not given here.

A short description of one data set: log P determination. The format is physicochemical. The note with it: EEC Directive 79/831 Annex V. A8 by HPLC (gradient method, acetonitrile/0.1% aqueous phosphoric acid).
Regarding `CC(C)C(C)Nc1c(-c2ccc(F)cc2Cl)c(Cl)nc2c(C(=O)Nc3ccn(C)n3)cnn12` (stereo not drawn) [compound 1184], the log p was determined as 4.35.

With `CC(Nc1c(-c2ccc(F)cc2Cl)c(Cl)nc2c(C(=O)Nc3ccn(C)n3)cnn12)C(C)(C)C` (stereo not drawn) [compound 1185], the log p came out at 4.69.

Regarding `CC(C)C(C)Nc1c(-c2ccc(F)cc2Cl)c(Cl)nc2c(C(=O)Nc3ccnn3C)cnn12` (stereo not drawn) [compound 1186], the log p is 4.18.

On to `CC(Nc1c(-c2ccc(F)cc2Cl)c(Cl)nc2c(C(=O)Nc3cnn(C)c3)cnn12)C(C)(C)C` (stereo not drawn) [compound 1187], for which the log p is listed as 4.26.

`CC(C)C(C)Nc1c(-c2ccc(F)cc2Cl)c(Cl)nc2c(C(=O)Nc3ncn(C)n3)cnn12` (stereo not drawn) [compound 1188] returned a log p of 3.62.

Take `CC(C)C(C)Nc1c(-c2ccc(F)cc2Cl)c(Cl)nc2c(C(=O)Nc3cnn(C)c3)cnn12` (stereo not drawn) [compound 1189]: the log p is recorded as 3.95.

`CC(C)C(C)Nc1c(-c2ccc(F)cc2F)c(Cl)nc2c(C(=O)NS(C)(=O)=O)cnn12` (stereo not drawn) [compound 1190] returned a log p of 3.87.

Consider `CC(Nc1c(-c2ccc(F)cc2Cl)c(Cl)nc2c(C(=O)Nc3ncn(C)n3)cnn12)C(C)(C)C` (stereo not drawn) [compound 1191], for which the log p worked out at 3.91.

In the case of `CC1CCN(c2c(-c3ccc(F)cc3Cl)c(Cl)nc3c(C(=O)Nc4ncn(C)n4)cnn23)CC1` [compound 1192], the log p amounted to 3.89.

The molecule `CC1CCN(c2c(-c3ccc(F)cc3Cl)c(Cl)nc3c(C(=O)Nc4ccnn4C)cnn23)CC1` [compound 1193] came in with a log p of 4.47.

`Cc1ccc(-c2c(Cl)nc3c(C(=O)NS(C)(=O)=O)cnn3c2NC(C)C(C)(C)C)c(Cl)c1` (stereo not drawn) [compound 1194] showed a log p of 4.76.

Turning to `CC1CCN(c2c(-c3ccc(F)cc3Cl)c(Cl)nc3c(C(=O)Nc4ccn(C)n4)cnn23)CC1` [compound 1195], the log p is 4.66.

The molecule `CC1CCN(c2c(-c3ccc(F)cc3Cl)c(Cl)nc3c(C(=O)Nc4cnn(C)c4)cnn23)CC1` [compound 1196] came in with a log p of 4.31.

Turning to `CC1CCN(c2c(-c3ccc(F)cc3Cl)c(Cl)nc3c(C(=O)Nc4ncn[nH]4)cnn23)CC1` [compound 1197], the log p was determined as 4.11.

The data set is the same for the next values; noted with them: HPLC (gradient method); starting materials and intermediates, log P / log P*; read-out: log P.
`COC(=O)c1cn[nH]c1N` [methyl 5-amino-1H-pyrazole-4-carboxylate]: the log p was -0.07.

Still in this data set, the particulars now being: HPLC, gradient method, acetonitrile/0.1% aqueous phosphoric acid (EEC Directive 79/831 Annex V. A8).
Turning to `CNC(=O)NC(=O)c1cnn2c(N[C@H](C)C(C)C)c(-c3ccc(F)cc3C)c(Cl)nc12` [Example 1178], the log p amounted to 4.42.

As to `Cc1cc(F)ccc1-c1c(Cl)nc2c(C(=O)Nc3ncccn3)cnn2c1NC(C)C(C)C` (stereo not drawn) [compound 1179], the log p was found to be 6.61.

The molecule `CC(C)C(C)Nc1c(-c2ccc(F)cc2F)c(Cl)nc2c(C(=O)NN3CCOCC3)cnn12` (stereo not drawn) [compound 1180] gave a log p of 3.46.

`Cc1ccc(-c2c(Cl)nc3c(C(=O)NN4CCOCC4)cnn3c2NC(C)C(C)(C)C)c(Cl)c1` (stereo not drawn) [compound 1181] returned a log p of 4.41.

`CC(Nc1c(-c2ccc(F)cc2F)c(Cl)nc2c(C(=O)NN3CCOCC3)cnn12)C(C)(C)C` (stereo not drawn) [compound 1182] came in with a log p of 3.76.

As for `Cc1ccsc1-c1c(Cl)nc2c(C(=O)NN3CCOCC3)cnn2c1NC(C)C(C)C` (stereo not drawn) [compound 1183], the log p amounted to 3.63.

The data set is the same for the next values; noted with them: starting materials and intermediates, log P / log P*; read-out: log P.
On to `COC(=O)c1cnn2c(Cl)c(-c3ccc(Cl)cc3Cl)c(Cl)nc12` [Methyl 5,7-dichloro-6-(2,4-dichlorophenyl)pyrazolo[1,5-a]pyrimidine-3-carboxylate], for which the log p came out at 3.86.

Regarding `COC(=O)c1cnn2c(NC(C)C)c(-c3ccc(Cl)cc3Cl)c(Cl)nc12` [Methyl 5-chloro-6-(2,4-dichlorophenyl)-7-isopropylaminopyrazolo[1,5-a]pyrimidine-3-carboxylate], the log p came out at 4.07.

Consider `COC(=O)c1cnn2c(O)c(-c3ccc(Cl)cc3Cl)c(O)nc12` [Methyl 6-(2,4-dichlorophenyl)-5,7-dihydroxypyrazolo[1,5-a]pyrimidine-3-carboxylate], for which the log p was determined as 1.21.

Still in this data set, the particulars now being: values marked **; EEC Directive 79/831 Annex V.A8, HPLC gradient method, acetonitrile/0.1% aqueous formic acid.
Regarding `Cc1cc(F)c(-c2c(Cl)nc3c(C(=O)NS(C)(=O)=O)cnn3c2N[C@H](C)C(C)(C)C)c(F)c1` [compound 51], the log p is listed as 4.38**.

Consider `CC(Nc1c(-c2ccccc2)c(Cl)nc2c(C(=O)Nc3ccon3)cnn12)C(C)(C)C` (stereo not drawn) [compound 71], for which the log p was 4.88**.

Regarding `CC(C)[C@@H](C)Nc1c(-c2ccc(Cl)cc2Cl)c(Cl)nc2c(C(=O)NS(=O)(=O)C(F)(F)F)cnn12` [compound 206], the log p was 3.87**.

As to `CCS(=O)(=O)NC(=O)c1cnn2c(N[C@H](C)C(C)C)c(-c3ccc(Cl)cc3Cl)c(Cl)nc12` [compound 208], the log p is given as 4.88**.

On to `Cc1cc(F)c(-c2c(Cl)nc3c(C(=O)NS(C)(=O)=O)cnn3c2N[C@H](C)C(C)C)c(F)c1` [compound 219], for which the log p is given as 4.08**.

The data set is the same for the next values; noted with them: values marked *; HPLC, gradient method, acetonitrile/0.1% aqueous phosphoric acid, EEC Directive 79/831 Annex V. A8.
Turning to `CC(C)Nc1c(-c2ccc(F)cc2Cl)c(Cl)nc2c(C(=O)NS(C)(=O)=O)cnn12` [Example 351], the log p is reported as 3.57*.

For `CC(C)Nc1c(-c2ccccc2Cl)c(Cl)nc2c(C(=O)NS(C)(=O)=O)cnn12` [Example 357], the log p is reported as 3.44*.

Regarding `CC(C)Nc1c(-c2c(F)cc(Cl)cc2F)c(Cl)nc2c(C(=O)NS(C)(=O)=O)cnn12` [Example 381], the log p is 3.68*.

Consider `CC(C)CNc1c(-c2c(F)cc(F)cc2F)c(Cl)nc2c(C(=O)NS(C)(=O)=O)cnn12` [Example 429], for which the log p is 3.59*.

As to `CC(C)CNc1c(-c2ccc(F)cc2Cl)c(Cl)nc2c(C(=O)NS(C)(=O)=O)cnn12` [Example 435], the log p is 3.82*.

Regarding `CC(C)CNc1c(-c2ccccc2Cl)c(Cl)nc2c(C(=O)NS(C)(=O)=O)cnn12` [Example 441], the log p is on record as 3.78*.

With `CC(C)CNc1c(-c2ccc(Cl)cc2Cl)c(Cl)nc2c(C(=O)NS(C)(=O)=O)cnn12` [Example 459], the log p was 4.26*.

For `CC(C)CNc1c(-c2c(F)cc(Cl)cc2F)c(Cl)nc2c(C(=O)NS(C)(=O)=O)cnn12` [Example 465], the log p is on record as 3.97*.

On to `CC(C)(C)CNc1c(-c2c(F)cccc2Cl)c(Cl)nc2c(C(=O)NS(C)(=O)=O)cnn12` [Example 507], for which the log p was 4.04*.

Regarding `CC(C)(C)CNc1c(-c2c(F)cc(F)cc2F)c(Cl)nc2c(C(=O)NS(C)(=O)=O)cnn12` [Example 513], the log p is recorded as 3.9*.

Take `CC(C)(C)CNc1c(-c2ccc(F)cc2Cl)c(Cl)nc2c(C(=O)NS(C)(=O)=O)cnn12` [Example 519]: the log p was 4.19*.

As to `CC(C)(C)CNc1c(-c2ccccc2Cl)c(Cl)nc2c(C(=O)NS(C)(=O)=O)cnn12` [Example 525], the log p is 4.17*.

In the case of `CC(C)(C)CNc1c(-c2ccc(Cl)cc2Cl)c(Cl)nc2c(C(=O)NS(C)(=O)=O)cnn12` [Example 543], the log p is 4.63*.

For the molecule `CC(C)(C)CNc1c(-c2c(F)cc(Cl)cc2F)c(Cl)nc2c(C(=O)NS(C)(=O)=O)cnn12` [Example 549], the log p was 4.31*.

In general, chromatographic logP refers to a lipophilicity value derived from retention on a column. Molecule `CC(C)Nc1c(-c2ccc(Cl)cc2Cl)c(Cl)nc2c(C(=O)NS(C)(=O)=O)cnn12` [compound 375] showed a chromatographic logP of 3.91.

The data set is the same for the next values; noted with them: values marked *; no footnote carries the single asterisk; general footnote: HPLC gradient method, acetonitrile/0.1% aqueous phosphoric acid.
For `CC(C)[C@@H](C)Nc1c(-c2c(F)cccc2Cl)c(Cl)nc2c(C(=O)NS(C)(=O)=O)cnn12` [Example 171], the log p is reported as 3.9*.

As for `CC(C)[C@@H](C)Nc1c(-c2ccccc2Cl)c(Cl)nc2c(C(=O)NS(C)(=O)=O)cnn12` [Example 189], the log p is 4.01*.

In the case of `CC(C)[C@@H](C)Nc1c(-c2c(F)cc(F)cc2Cl)c(Cl)nc2c(C(=O)NS(C)(=O)=O)cnn12` [Example 201], the log p is 4.05*.

With `CC(C)[C@@H](C)Nc1c(-c2ccc(Cl)cc2Cl)c(Cl)nc2c(C(=O)NS(C)(=O)=O)cnn12` [Example 207], the log p was 4.55*.

Consider `CC(C)[C@@H](C)Nc1c(-c2c(F)cc(Cl)cc2F)c(Cl)nc2c(C(=O)NS(C)(=O)=O)cnn12` [Example 213], for which the log p was 4.24*.

On to `CC1CCN(c2c(-c3c(F)cccc3Cl)c(Cl)nc3c(C(=O)NS(C)(=O)=O)cnn23)CC1` [Example 255], for which the log p is on record as 4.2*.

In the case of `CC1CCN(c2c(-c3c(F)cc(F)cc3F)c(Cl)nc3c(C(=O)NS(C)(=O)=O)cnn23)CC1` [Example 261], the log p is 4.07*.

On to `CC1CCN(c2c(-c3c(F)cc(F)cc3Cl)c(Cl)nc3c(C(=O)NS(C)(=O)=O)cnn23)CC1` [Example 285], for which the log p is 4.34*.

The same data set, now with this note: values printed without asterisk; EEC Directive 79/831 Annex V. A8, HPLC gradient method, acetonitrile/0.1% aqueous phosphoric acid (general footnote).
As to `C[C@H](Nc1c(-c2ccc(Cl)cc2Cl)c(Cl)nc2c(C(=O)NS(C)(=O)=O)cnn12)C(F)(F)F` [Example 123], the log p was 3.99.

`CC(C)[C@@H](C)Nc1c(-c2ccc(F)cc2Cl)c(Cl)nc2c(C(=O)NS(C)(=O)=O)cnn12` [Example 183] displayed a log p of 4.18.

Values taken from US7781439B2, “Pyrazolopyrimidines” (Bayer CropScience AG, priority 2005, dated 2010).
